Laboratory results published in US20200407712A1, “ARRAY-BASED CYCLIC PEPTIDE LIBRARIES” (HealthTell Inc., priority 2018, published 2020).

Experiments:
[1] = target: T1, human diaphorase (NQO1) (Homo sapiens, UniProt P15559); test: Alexa Fluor 555-diaphorase binding to linear and lactam constrained peptide microarrays; settings: 10.0 nM protein applied to the array; for Diaphorase Lactam, log 10 transformed median intensity: lactam constrained library peptide; for Diaphorase Linear, log 10 transformed median intensity: linear library peptide
T1 construct: purchased SigmaAldrich
Text: (§1) Diaphorase is NAD(P)H dehydrogenase (UniProtKB: P15559) encoded by the NQO1 gene. Diaphorase has utility as a model enzyme; for which peptide based synthetic affinity agents to diaphorase are required. A 3.3 million feature peptide array was used to identify potential binding partner peptides for diaphorase. Ferredoxin NADP+ Reductase (FNR) and Ferredoxin are included as counter screens for a specific application, while immunoglobulin depleted human serum (Non-Immunoglobulin Serum Components or NISC) was used as a complex mixture to control for generally sticky peptides.
Two wafers from the same synthesis batch were obtained where one wafer was prepared with the lactam chemistry and constrained into a cyclized form. The degree of cyclization was confirmed using the biotinylation assay described in Examples 9, 17, and 19.
(§2) Peptide arrays were prepared for protein binding by pretreating the arrays in PBST for 30 min at […]. Direct labeled diaphorase (Alexa Fluor™ 555), direct labeled FNR (Alexa Fluor™ 555) and biotinylated ferredoxin were applied to the arrays at 1.0 and 10.0 nM along with direct labeled NISC at 0.001 mg/mL for 1 hr at 37° C. Arrays were washed 3× with PBST and Streptavidin-Alexa Fluor™ 555 was applied to the biotinylated ferredoxin and streptavidin alone arrays. All other arrays received PBST and were incubated for 1 hr at 37° C. Arrays were washed with PBST and p53Ab1-Alexa Fluor™ 647 applied to all arrays to illuminate the edge fiducials for 10 min at 37° C. Following the final incubation arrays were washed in PBST and water, dried and imaged on the ImageXpress ([…]). Triplicate arrays were used for the subsequent analysis except for when rejection of an array was necessary due to the presence of artifacts. Data were analyzed using a custom R script.
Intensities plotted are the log 10 transformed median intensity from replicate arrays. Coloring of the points represents the density of features at that intensity using a gray-scale map. Light grey represents areas of low peptide numbers while black represents the intensity having the highest number of peptides. The diagonal line is equivalence line. […] CLUSTAL sequence alignment (FIG. 27B) of the sequences indicated similarities in amino acid composition. Highlighted amino acids are conserved in over 60% of the peptides for that position or are a chemically similar amino acid (ie: F and Y).
The sequences contain similar amino acid usage. Four peptides having the highest degree of cyclization in the quality control assay were identified and binding intensities compared to other library peptides having one or two amino acid substitutions as shown in FIG. 28. Substitutional analysis provides confidence in the array data by indicating which residues are important for binding. Dark grey boxes highlight indicate a residue conserved in more than 60% of the peptides. Light grey boxes highlight indicate chemically similar amino acids to the conserved residue. RFI is the intensity is the median replicate log 10 intensity for the 10.0 nM Diaphorase.

[2] = tested on: Ferredoxin NADP+ Reductase (FNR); test: FNR counter screen on linear and lactam constrained peptide microarrays; assay type: binding; settings: 10.0 nM protein applied to the array; for FNR Lactam, log 10 transformed median intensity: lactam constrained library peptide; for FNR Linear, log 10 transformed median intensity: linear library peptide
Text: as §1, §2

[3] = tested on: Ferredoxin; test: Biotinylated ferredoxin counter screen on linear and lactam constrained peptide microarrays; assay type: binding; settings: 10.0 nM biotinylated protein, detected with Streptavidin-Alexa Fluor 555; for Ferredoxin Lactam, log 10 transformed median intensity: lactam constrained library peptide; for Ferredoxin Linear, log 10 transformed median intensity: linear library peptide
Text: as §1, §2

[4] = tested on: Non-Immunoglobulin Serum Components (NISC); test: NISC counter screen on linear and lactam constrained peptide microarrays; assay type: binding, human; settings: 0.001 mg/mL NISC applied to the array; for NISC Lactam, log 10 transformed median intensity: lactam constrained library peptide; for NISC Linear, log 10 transformed median intensity: linear library peptide
Text: as §1, §2
Peptides were also selected based on the difference in log 10 transformed intensities between diaphorase and NISC as the counter screen agent (LFGdiaphorase minus LFGNISC). Intensities for 10.0 nM diaphorase and 0.001 mg/mL NISC are shown in FIG. 29A where intensities plotted are the log 10 transformed median intensity from replicate arrays. Coloring of the points represents the density of features at that intensity using a grey colorscale. Light grey represents areas of low peptide numbers while black represents the intensity having the highest number of peptides. The diagonal line is equivalence line. Selectivity vs NISC was not dependent on cyclization as diaphorase also bound the linear forms for some peptides (Table 4). Three peptides having the highest degree of cyclization in the quality control assay were identified and binding intensities compared to other library peptides having one or two amino acid substitutions (FIG. 30) Each CLUSTAL alignment contains the library peptides having a maximum of two substitutions to the parent peptide. Dark grey highlights indicate a residue conserved in more than 60% of the peptides. Light grey highlights indicate chemically similar amino acids to the conserved residue. The amino acid usage is indicated in the sequence logo above the alignment. Substitutional analysis provides confidence in the array data by indicating which residues are important for binding.

[5] = target: Streptavidin (Streptomyces avidinii, UniProt P22629); test: Streptavidin-Alexa Fluor 555 alone on linear and lactam constrained peptide microarrays; assay type: binding; settings: for Streptavidin Lactam, log 10 transformed median intensity: lactam constrained library peptide; for Streptavidin Linear, log 10 transformed median intensity: linear library peptide
Protocol: as §2

T1 sequence (P15559 whole entry): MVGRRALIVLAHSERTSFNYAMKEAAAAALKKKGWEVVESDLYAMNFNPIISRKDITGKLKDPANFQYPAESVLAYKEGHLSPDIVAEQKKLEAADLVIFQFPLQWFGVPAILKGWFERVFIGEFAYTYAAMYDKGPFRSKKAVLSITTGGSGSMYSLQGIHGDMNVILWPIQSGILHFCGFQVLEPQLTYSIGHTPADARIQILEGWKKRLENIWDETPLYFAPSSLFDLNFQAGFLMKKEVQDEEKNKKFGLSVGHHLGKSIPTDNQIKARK
Streptavidin, sequence (P22629 25-183, species assumed): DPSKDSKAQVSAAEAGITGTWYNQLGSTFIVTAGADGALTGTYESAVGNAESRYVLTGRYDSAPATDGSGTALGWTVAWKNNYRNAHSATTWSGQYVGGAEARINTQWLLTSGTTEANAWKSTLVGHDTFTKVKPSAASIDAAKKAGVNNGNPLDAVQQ

IGPNPKNN [library array peptide, tested lactam constrained and linear]
Diaphorase Lactam, log 10 transformed median intensity [1]: 4.34
Diaphorase Linear, log 10 transformed median intensity [1]: 4.22
FNR Lactam, log 10 transformed median intensity [2]: 2.54
FNR Linear, log 10 transformed median intensity [2]: 2.57
Ferredoxin Lactam, log 10 transformed median intensity [3]: 2.56
Ferredoxin Linear, log 10 transformed median intensity [3]: 2.59
NISC Lactam, log 10 transformed median intensity [4]: 2.65
NISC Linear, log 10 transformed median intensity [4]: 2.78
Streptavidin Lactam, log 10 transformed median intensity [5]: 2.52
Streptavidin Linear, log 10 transformed median intensity [5]: 2.52

PFSGQPNS [library array peptide, tested lactam constrained and linear]
Diaphorase Lactam, log 10 transformed median intensity [1]: 4.38
Diaphorase Linear, log 10 transformed median intensity [1]: 3.70
FNR Lactam, log 10 transformed median intensity [2]: 2.58
FNR Linear, log 10 transformed median intensity [2]: 2.58
Ferredoxin Lactam, log 10 transformed median intensity [3]: 2.59
Ferredoxin Linear, log 10 transformed median intensity [3]: 2.59
NISC Lactam, log 10 transformed median intensity [4]: 2.67
NISC Linear, log 10 transformed median intensity [4]: 2.63
Streptavidin Lactam, log 10 transformed median intensity [5]: 2.57
Streptavidin Linear, log 10 transformed median intensity [5]: 2.56

PGKPNTQ [library array peptide, tested lactam constrained and linear]
Diaphorase Lactam, log 10 transformed median intensity [1]: 4.36
Diaphorase Linear, log 10 transformed median intensity [1]: 4.15
FNR Lactam, log 10 transformed median intensity [2]: 2.54
FNR Linear, log 10 transformed median intensity [2]: 2.7
Ferredoxin Lactam, log 10 transformed median intensity [3]: 2.55
Ferredoxin Linear, log 10 transformed median intensity [3]: 2.63
NISC Lactam, log 10 transformed median intensity [4]: 2.68
NISC Linear, log 10 transformed median intensity [4]: 2.84
Streptavidin Lactam, log 10 transformed median intensity [5]: 2.51
Streptavidin Linear, log 10 transformed median intensity [5]: 2.53

PNYSSAP [library array peptide, tested lactam constrained and linear]
Diaphorase Lactam, log 10 transformed median intensity [1]: 4.31
Diaphorase Linear, log 10 transformed median intensity [1]: 3.91
FNR Lactam, log 10 transformed median intensity [2]: 2.56
FNR Linear, log 10 transformed median intensity [2]: 2.54
Ferredoxin Lactam, log 10 transformed median intensity [3]: 2.56
Ferredoxin Linear, log 10 transformed median intensity [3]: 2.55
NISC Lactam, log 10 transformed median intensity [4]: 2.63
NISC Linear, log 10 transformed median intensity [4]: 2.61
Streptavidin Lactam, log 10 transformed median intensity [5]: 2.52
Streptavidin Linear, log 10 transformed median intensity [5]: 2.52

PPYPNQYQ [library array peptide, tested lactam constrained and linear]
Diaphorase Lactam, log 10 transformed median intensity [1]: 4.39
Diaphorase Linear, log 10 transformed median intensity [1]: 4.04
FNR Lactam, log 10 transformed median intensity [2]: 2.55
FNR Linear, log 10 transformed median intensity [2]: 2.56
Ferredoxin Lactam, log 10 transformed median intensity [3]: 2.58
Ferredoxin Linear, log 10 transformed median intensity [3]: 2.58
NISC Lactam, log 10 transformed median intensity [4]: 2.69
NISC Linear, log 10 transformed median intensity [4]: 2.69
Streptavidin Lactam, log 10 transformed median intensity [5]: 2.53
Streptavidin Linear, log 10 transformed median intensity [5]: 2.53

PPYTYANN [library array peptide, tested lactam constrained and linear]
Diaphorase Lactam, log 10 transformed median intensity [1]: 4.35
Diaphorase Linear, log 10 transformed median intensity [1]: 4.00
FNR Lactam, log 10 transformed median intensity [2]: 2.54
FNR Linear, log 10 transformed median intensity [2]: 2.53
Ferredoxin Lactam, log 10 transformed median intensity [3]: 2.56
Ferredoxin Linear, log 10 transformed median intensity [3]: 2.55
NISC Lactam, log 10 transformed median intensity [4]: 2.66
NISC Linear, log 10 transformed median intensity [4]: 2.63
Streptavidin Lactam, log 10 transformed median intensity [5]: 2.53
Streptavidin Linear, log 10 transformed median intensity [5]: 2.52

PTSSYLN [library array peptide, tested lactam constrained and linear]
Diaphorase Lactam, log 10 transformed median intensity [1]: 4.32
Diaphorase Linear, log 10 transformed median intensity [1]: 3.75
FNR Lactam, log 10 transformed median intensity [2]: 2.53
FNR Linear, log 10 transformed median intensity [2]: 2.53
Ferredoxin Lactam, log 10 transformed median intensity [3]: 2.56
Ferredoxin Linear, log 10 transformed median intensity [3]: 2.55
NISC Lactam, log 10 transformed median intensity [4]: 2.63
NISC Linear, log 10 transformed median intensity [4]: 2.61
Streptavidin Lactam, log 10 transformed median intensity [5]: 2.52
Streptavidin Linear, log 10 transformed median intensity [5]: 2.53

PYSNVFQG [library array peptide, tested lactam constrained and linear]
Diaphorase Lactam, log 10 transformed median intensity [1]: 4.43
Diaphorase Linear, log 10 transformed median intensity [1]: 3.88
FNR Lactam, log 10 transformed median intensity [2]: 2.56
FNR Linear, log 10 transformed median intensity [2]: 2.56
Ferredoxin Lactam, log 10 transformed median intensity [3]: 2.59
Ferredoxin Linear, log 10 transformed median intensity [3]: 2.57
NISC Lactam, log 10 transformed median intensity [4]: 2.72
NISC Linear, log 10 transformed median intensity [4]: 2.66
Streptavidin Lactam, log 10 transformed median intensity [5]: 2.54
Streptavidin Linear, log 10 transformed median intensity [5]: 2.54

QPQSQQSQ [library array peptide, tested lactam constrained and linear]
Diaphorase Lactam, log 10 transformed median intensity [1]: 4.28
Diaphorase Linear, log 10 transformed median intensity [1]: 3.42
FNR Lactam, log 10 transformed median intensity [2]: 2.55
FNR Linear, log 10 transformed median intensity [2]: 2.55
Ferredoxin Lactam, log 10 transformed median intensity [3]: 2.56
Ferredoxin Linear, log 10 transformed median intensity [3]: 2.56
NISC Lactam, log 10 transformed median intensity [4]: 2.59
NISC Linear, log 10 transformed median intensity [4]: 2.59
Streptavidin Lactam, log 10 transformed median intensity [5]: 2.53
Streptavidin Linear, log 10 transformed median intensity [5]: 2.54

TFGFNGFP [library array peptide, tested lactam constrained and linear]
Diaphorase Lactam, log 10 transformed median intensity [1]: 4.49
Diaphorase Linear, log 10 transformed median intensity [1]: 2.84
FNR Lactam, log 10 transformed median intensity [2]: 2.59
FNR Linear, log 10 transformed median intensity [2]: 2.55
Ferredoxin Lactam, log 10 transformed median intensity [3]: 2.70
Ferredoxin Linear, log 10 transformed median intensity [3]: 2.55
NISC Lactam, log 10 transformed median intensity [4]: 3.49
NISC Linear, log 10 transformed median intensity [4]: 2.62
Streptavidin Lactam, log 10 transformed median intensity [5]: 2.53
Streptavidin Linear, log 10 transformed median intensity [5]: 2.52

TFSSFAPV [library array peptide, tested lactam constrained and linear]
Diaphorase Lactam, log 10 transformed median intensity [1]: 4.52
Diaphorase Linear, log 10 transformed median intensity [1]: 2.86
FNR Lactam, log 10 transformed median intensity [2]: 2.56
FNR Linear, log 10 transformed median intensity [2]: 2.55
Ferredoxin Lactam, log 10 transformed median intensity [3]: 2.70
Ferredoxin Linear, log 10 transformed median intensity [3]: 2.55
NISC Lactam, log 10 transformed median intensity [4]: 3.36
NISC Linear, log 10 transformed median intensity [4]: 2.65
Streptavidin Lactam, log 10 transformed median intensity [5]: 2.53
Streptavidin Linear, log 10 transformed median intensity [5]: 2.53

TISYPLTP [library array peptide, tested lactam constrained and linear]
Diaphorase Lactam, log 10 transformed median intensity [1]: 4.55
Diaphorase Linear, log 10 transformed median intensity [1]: 2.86
FNR Lactam, log 10 transformed median intensity [2]: 2.56
FNR Linear, log 10 transformed median intensity [2]: 2.53
Ferredoxin Lactam, log 10 transformed median intensity [3]: 2.84
Ferredoxin Linear, log 10 transformed median intensity [3]: 2.55
NISC Lactam, log 10 transformed median intensity [4]: 3.49
NISC Linear, log 10 transformed median intensity [4]: 2.59
Streptavidin Lactam, log 10 transformed median intensity [5]: 2.54
Streptavidin Linear, log 10 transformed median intensity [5]: 2.53
